Where “and” joins values, the source holds several entries; their conditions need not be identical. Equal entries are not always repeated.
Columns and labels:
FGFR1 = FGFR1 (Homo sapiens (Human), UniProt P11362); experiment: RBC HotSpot Kinase Assay (33P-ATP filter-binding); assay type: biochemical; conditions: 10 μM ATP
FGFR2 = FGFR2 (Homo sapiens (Human), UniProt P21802); experiment: RBC HotSpot Kinase Assay (33P-ATP filter-binding); assay type: biochemical; conditions: 10 μM ATP
Procedure: (§1) Biochemical Assay. […] The reaction buffer was 20 mM HEPES (pH 7.5), 10 mM MgCl2, 1 mM EGTA, 0.02% Brij35, 0.02 mg/mL BSA, 0.1 mM Na3VO4, 2 mM DTT, 1% DMSO. The required cofactors are added individually to each kinase reaction. […] The substrate was Poly (Glu, Tyr) sodium salt and the concentration was 0.2 mg/mL (Sigma; cat. #P7244) where the Glu:Tyr (4:1) molecular weight was 5,000-20,000. […] Reactions were carried out at 10 μM ATP. The serial dilution was conducted by Integra Viaflo Assist in DMSO. The reaction procedure was conducted as follows: • 1) Prepare substrate in freshly prepared Reaction Buffer. • 2) MnCl2 (2 mM) was added as a co-factor listed as above. • 3) Deliver kinase into the substrate solution and gently mix. • 4) Deliver compounds in 100% DMSO into the kinase reaction mixture by Acoustic technology (Echo550; nanoliter range), incubate for 20 min at RT. • 5) Deliver 33P-ATP (specific activity 10 μCi/μL) into the reaction mixture to initiate the reaction. • 6) Incubate for 2 hours at RT. • 7) Detect radioactivity by the filter-binding method. • 8) Kinase activity data was expressed as the percent remaining kinase activity in the test sample compared to vehicle (DMSO) reactions.

FGFR3 = FGFR3 (Homo sapiens (Human), UniProt P22607); experiment: RBC HotSpot Kinase Assay (33P-ATP filter-binding); assay type: biochemical; conditions: 10 μM ATP
FGFR3, sequence (P22607 23-806): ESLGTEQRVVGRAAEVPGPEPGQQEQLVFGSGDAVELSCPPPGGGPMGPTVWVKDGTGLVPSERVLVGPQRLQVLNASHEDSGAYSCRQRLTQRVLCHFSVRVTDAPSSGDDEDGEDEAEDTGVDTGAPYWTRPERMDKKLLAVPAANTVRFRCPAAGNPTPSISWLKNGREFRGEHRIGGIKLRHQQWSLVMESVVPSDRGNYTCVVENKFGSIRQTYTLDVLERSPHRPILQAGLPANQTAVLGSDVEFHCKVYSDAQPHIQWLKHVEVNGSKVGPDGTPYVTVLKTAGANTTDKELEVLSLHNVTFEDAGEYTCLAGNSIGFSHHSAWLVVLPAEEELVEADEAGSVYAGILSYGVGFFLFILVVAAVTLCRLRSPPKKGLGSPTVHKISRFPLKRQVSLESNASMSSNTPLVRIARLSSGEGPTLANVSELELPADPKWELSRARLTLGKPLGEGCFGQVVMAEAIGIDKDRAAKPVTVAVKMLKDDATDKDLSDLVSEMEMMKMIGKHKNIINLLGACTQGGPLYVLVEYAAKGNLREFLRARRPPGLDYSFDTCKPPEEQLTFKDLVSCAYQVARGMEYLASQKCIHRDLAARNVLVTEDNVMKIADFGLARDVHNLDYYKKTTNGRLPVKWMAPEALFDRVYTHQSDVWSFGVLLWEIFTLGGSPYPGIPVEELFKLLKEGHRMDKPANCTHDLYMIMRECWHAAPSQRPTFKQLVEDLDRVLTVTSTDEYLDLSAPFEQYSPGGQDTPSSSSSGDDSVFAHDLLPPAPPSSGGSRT
Procedure: as §1

FGFR4 = FGFR4 (Homo sapiens (Human), UniProt P22455); experiment: RBC HotSpot Kinase Assay (33P-ATP filter-binding); assay type: biochemical; conditions: 10 μM ATP
FGFR4, sequence (P22455 22-802): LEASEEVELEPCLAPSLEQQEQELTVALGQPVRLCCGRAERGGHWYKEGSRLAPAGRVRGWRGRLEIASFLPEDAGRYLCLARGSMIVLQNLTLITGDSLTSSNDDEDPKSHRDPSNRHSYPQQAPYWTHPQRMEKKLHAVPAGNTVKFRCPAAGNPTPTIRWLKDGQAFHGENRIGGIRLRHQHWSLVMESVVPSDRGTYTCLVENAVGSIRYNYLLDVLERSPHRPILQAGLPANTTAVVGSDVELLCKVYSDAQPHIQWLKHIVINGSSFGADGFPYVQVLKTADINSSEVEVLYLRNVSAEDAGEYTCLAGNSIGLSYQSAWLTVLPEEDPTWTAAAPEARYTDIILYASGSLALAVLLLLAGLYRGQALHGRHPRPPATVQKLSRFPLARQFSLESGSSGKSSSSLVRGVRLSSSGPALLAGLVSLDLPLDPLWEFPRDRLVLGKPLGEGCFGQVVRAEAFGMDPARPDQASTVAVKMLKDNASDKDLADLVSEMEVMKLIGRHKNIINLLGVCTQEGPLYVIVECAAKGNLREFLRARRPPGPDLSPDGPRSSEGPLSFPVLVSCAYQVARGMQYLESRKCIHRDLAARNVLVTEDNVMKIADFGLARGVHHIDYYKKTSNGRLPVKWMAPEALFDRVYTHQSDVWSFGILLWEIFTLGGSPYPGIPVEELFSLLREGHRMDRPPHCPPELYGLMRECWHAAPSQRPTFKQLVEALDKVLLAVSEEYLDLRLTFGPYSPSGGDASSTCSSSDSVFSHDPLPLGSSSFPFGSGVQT
Procedure: as §1

[1] = Pharmacokinetics assay in male CD-1 mice (plasma, LC-MS/MS, non-compartmental analysis); assay type: in vivo; conditions: mouse;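 for Plasma concentration: plasma concentration of test compound at each sampling time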
Procedure: Pharmacokinetics Assay. A pharmacokinetics assay of Example 1 was performed by WuXi AppTec Inc., 6 Cedarbrook Drive, Cranbury, NJ 08512 USA. This study was conducted in 6 to 8-week-old male CD-1 mice (Hilltop Laboratories). Animals were group housed during acclimation and throughout the study. The animal room environment was controlled according to facility operation (temperature: 20 to 26° C.; relative humidity: 30 to 70%; lighting: 12 hour light/dark cycle). Temperature, relative humidity, and lighting were monitored by PointView Environmental Monitoring System. Animals were fed certified pellet diet (Certified Rodent Diet #5002, LabDiet). The diet lot number and specifications were recorded in study notebook and archived at WuXi AppTec. Water (reverse osmosis) was provided to the animals ad libitum. The animals were fasted overnight and food was returned 4 hours post-dose.
An appropriate amount of Example compound 1 above (N^1-(3,5-Dimethoxyphenyl)-N^2-isopropyl-N^1-(3-(1-methyl-1H-pyrazol-4-yl)cinnolin-6-yl)ethane-1,2-diamine) was accurately weighed and mixed with an appropriate volume of 20% hydroxypropyl-(3-cyclodextrin; 80% H2O (w/v) to give either a clear solution or uniform suspension (PO only). Blood samples of about 30-40 μL were collected from peripheral veins at pre-defined time points. into pre-chilled micro-tubes containing K2EDTA as anti-coagulant and kept on ice until centrifugation. The blood samples were centrifuged at 4° C., 3000g for 15 min within half an hour of collection. Plasma was collected into 96-well plate(s), quickly frozen on dry ice and stored at −70±10° C. until LC-MS/MS analysis. The LC-MS/MS analytical method is described as follows:
The pharmacokinetics of Example Compound 1 were analyzed using the Phoenix WinNonlin software (version 6.3) based on the non-compartmental analysis model and the results are shown below in FIGS. 1 and 2 and in Tables 1 and 2. M7, M8, M9, etc. refer to particular mouse subjects used in the study.

[2] = IV 1.00 mg/kg, individual mice M7-M9
[3] = PO 10.0 mg/kg, individual mice M10-M12

FGFR1, sequence (P11362 22-822): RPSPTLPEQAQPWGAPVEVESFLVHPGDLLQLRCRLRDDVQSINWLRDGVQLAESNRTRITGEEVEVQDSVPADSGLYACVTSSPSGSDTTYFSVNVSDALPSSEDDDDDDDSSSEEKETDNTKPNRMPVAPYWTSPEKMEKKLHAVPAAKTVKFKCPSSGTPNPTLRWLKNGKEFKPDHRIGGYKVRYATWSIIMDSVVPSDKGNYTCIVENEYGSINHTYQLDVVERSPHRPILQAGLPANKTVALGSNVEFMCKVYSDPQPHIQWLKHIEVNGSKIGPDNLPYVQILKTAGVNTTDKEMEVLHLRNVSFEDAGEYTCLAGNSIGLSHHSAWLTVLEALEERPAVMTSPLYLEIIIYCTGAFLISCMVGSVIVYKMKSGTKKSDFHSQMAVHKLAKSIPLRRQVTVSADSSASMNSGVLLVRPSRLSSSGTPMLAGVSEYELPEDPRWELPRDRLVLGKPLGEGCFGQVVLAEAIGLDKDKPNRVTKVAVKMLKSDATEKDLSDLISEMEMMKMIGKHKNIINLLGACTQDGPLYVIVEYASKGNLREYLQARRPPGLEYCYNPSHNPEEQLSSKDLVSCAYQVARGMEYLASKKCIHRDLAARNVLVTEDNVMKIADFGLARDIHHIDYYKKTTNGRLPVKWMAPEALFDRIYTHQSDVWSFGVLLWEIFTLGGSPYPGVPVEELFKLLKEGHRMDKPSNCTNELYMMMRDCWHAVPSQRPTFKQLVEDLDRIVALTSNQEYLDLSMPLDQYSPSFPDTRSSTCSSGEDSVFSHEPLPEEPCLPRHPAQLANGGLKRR
FGFR2, sequence (P21802 22-821): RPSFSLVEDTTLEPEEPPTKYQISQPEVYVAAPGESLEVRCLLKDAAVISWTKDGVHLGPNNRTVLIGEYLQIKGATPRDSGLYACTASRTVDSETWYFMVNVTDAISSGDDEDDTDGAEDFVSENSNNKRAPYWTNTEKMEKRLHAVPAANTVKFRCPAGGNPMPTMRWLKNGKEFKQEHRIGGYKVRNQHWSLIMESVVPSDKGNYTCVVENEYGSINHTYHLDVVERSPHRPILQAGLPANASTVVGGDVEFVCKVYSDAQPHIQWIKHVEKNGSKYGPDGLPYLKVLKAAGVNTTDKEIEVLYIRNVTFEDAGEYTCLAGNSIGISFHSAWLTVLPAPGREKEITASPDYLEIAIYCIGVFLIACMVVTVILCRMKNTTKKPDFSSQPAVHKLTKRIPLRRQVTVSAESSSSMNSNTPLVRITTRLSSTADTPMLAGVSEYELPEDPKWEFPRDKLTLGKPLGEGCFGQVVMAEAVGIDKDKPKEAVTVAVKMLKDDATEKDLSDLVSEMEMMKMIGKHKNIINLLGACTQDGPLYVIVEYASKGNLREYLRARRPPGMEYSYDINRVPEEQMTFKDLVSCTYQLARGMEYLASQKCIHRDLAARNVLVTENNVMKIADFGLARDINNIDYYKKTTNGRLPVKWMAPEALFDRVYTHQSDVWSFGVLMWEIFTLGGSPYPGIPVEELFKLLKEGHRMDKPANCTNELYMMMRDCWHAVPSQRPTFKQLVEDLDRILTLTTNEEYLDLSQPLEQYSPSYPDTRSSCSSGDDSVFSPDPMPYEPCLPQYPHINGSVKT

**Q.** For `COc1cc(OC)cc(N(CCNC(C)C)c2ccc3nnc(-c4cnn(C)c4)cc3c2)c1` [Example 1, N^1-(3,5-Dimethoxyphenyl)-N^2-isopropyl-N^1-(3-(1-methyl-1H-pyrazol-4-yl)cinnolin-6-yl)ethane-1,2-diamine], which IC50 (FGFR1) is on record?
**A.** 7.3 nM

**Q.** What about the IC50 (FGFR2) of the same compound?
**A.** 4.3 nM

**Q.** And the IC50 (FGFR3)?
**A.** 7.6 nM

**Q.** And the IC50 (FGFR4)?
**A.** 11 nM

**Q.** What about the Plasma concentration ([1]; IV 1.00 mg/kg, 299 s, individual mice M7-M9) of the same compound?
**A.** 294 ng/mL and 444 ng/mL

**Q.** What about the Plasma concentration ([1]; IV 1.00 mg/kg, 0.250 h, individual mice M7-M9) of the same compound?
**A.** 197 ng/mL and 143 ng/mL and 292 ng/mL

**Q.** What about the Plasma concentration ([1]; IV 1.00 mg/kg, 0.500 h, individual mice M7-M9) of the same compound?
**A.** 80.8 ng/mL and 86.8 ng/mL and 206 ng/mL

**Q.** What about the Plasma concentration ([1]; IV 1.00 mg/kg, 1.00 h, individual mice M7-M9) of the same compound?
**A.** 58.0 ng/mL and 29.3 ng/mL and 86.4 ng/mL

**Q.** What about the Plasma concentration ([1]; IV 1.00 mg/kg, 2.00 h, individual mice M7-M9) of the same compound?
**A.** 15.2 ng/mL and 8.83 ng/mL and 17.9 ng/mL

**Q.** What about the Plasma concentration ([1]; IV 1.00 mg/kg, 4.00 h, individual mice M7-M9) of the same compound?
**A.** 3.17 ng/mL and 3.64 ng/mL

**Q.** What about the Plasma concentration ([1]; IV 1.00 mg/kg, 8.00 h, individual mice M7-M9) of the same compound?
**A.** 1.73 ng/mL and 1.42 ng/mL

**Q.** What about the Plasma concentration ([1]; IV 1.00 mg/kg, 24.0 h, individual mice M7-M9) of the same compound?
**A.** 2.21 ng/mL and BQL

**Q.** What about the AUC0-inf [1, 2] of the same compound?
**A.** 197 ng·h/mL and 305 ng·h/mL

**Q.** What about the AUC0-last [1, 2] of the same compound?
**A.** 188 ng·h/mL and 303 ng·h/mL

**Q.** And the AUCExtra [1, 2]?
**A.** 1.15% and 4.42% and 0.637%

**Q.** What about the AUMCExtra [1, 2] of the same compound?
**A.** 10.6% and 26.9% and 6.89%

**Q.** What about the C0 [1, 2] of the same compound?
**A.** 421 ng/mL and 547 ng/mL

**Q.** And the Cl [1, 2]?
**A.** 84.8 mL/min/kg and 54.7 mL/min/kg

**Q.** What about the MRT0-inf [1, 2] of the same compound?
**A.** 2.80 h and 4.58 h and 0.866 h

**Q.** What about the MRT0-last [1, 2] of the same compound?
**A.** 2.53 h and 3.50 h and 0.812 h

**Q.** And the T1/2 [1, 2]?
**A.** 1.34 h and 2.72 h and 0.948 h

**Q.** And the Tlast [1, 2]?
**A.** 24.0 h (2×) and 8.00 h

**Q.** And the Vdss [1, 2]?
**A.** 12.2 L/kg and 23.3 L/kg and 2.84 L/kg

**Q.** And the AUCExtra ([1]; IV 1.00 mg/kg, mean)?
**A.** 2.07%

**Q.** What about the AUMCExtra ([1]; IV 1.00 mg/kg, mean) of the same compound?
**A.** 14.8%

**Q.** What about the Tlast ([1]; IV 1.00 mg/kg, mean) of the same compound?
**A.** 18.7 h

**Q.** What about the Plasma concentration ([1]; PO 10.0 mg/kg, 0.167 h, individual mice M10-M12) of the same compound?
**A.** 43.6 ng/mL and 46.8 ng/mL and 147 ng/mL

**Q.** What about the Plasma concentration ([1]; PO 10.0 mg/kg, 0.500 h, individual mice M10-M12) of the same compound?
**A.** 71.0 ng/mL and 102 ng/mL and 269 ng/mL

**Q.** What about the Plasma concentration ([1]; PO 10.0 mg/kg, 1.00 h, individual mice M10-M12) of the same compound?
**A.** 47.6 ng/mL and 51.9 ng/mL and 170 ng/mL

**Q.** And the Plasma concentration ([1]; PO 10.0 mg/kg, 2.00 h, individual mice M10-M12)?
**A.** 14.1 ng/mL and 29.7 ng/mL and 89.5 ng/mL

**Q.** What about the Plasma concentration ([1]; PO 10.0 mg/kg, 4.00 h, individual mice M10-M12) of the same compound?
**A.** 12.5 ng/mL and 9.57 ng/mL and 22.8 ng/mL

**Q.** And the Plasma concentration ([1]; PO 10.0 mg/kg, 6.00 h, individual mice M10-M12)?
**A.** 20.7 ng/mL and 7.02 ng/mL and 4.44 ng/mL

**Q.** What about the Plasma concentration ([1]; PO 10.0 mg/kg, 8.00 h, individual mice M10-M12) of the same compound?
**A.** 13.2 ng/mL and 4.84 ng/mL and 1.77 ng/mL

**Q.** What about the Plasma concentration ([1]; PO 10.0 mg/kg, 24.0 h, individual mice M10-M12) of the same compound?
**A.** 7.49 ng/mL and 1.56 ng/mL and BQL

**Q.** What about the AUC0-inf [1, 3] of the same compound?
**A.** 488 ng·h/mL and 235 ng·h/mL and 443 ng·h/mL

**Q.** And the AUC0-last [1, 3]?
**A.** 333 ng·h/mL and 216 ng·h/mL and 441 ng·h/mL

**Q.** And the AUCExtra [1, 3]?
**A.** 31.7% and 8.42% and 0.593%

**Q.** And the AUMCExtra [1, 3]?
**A.** 69.7% and 41.4% and 3.41%

**Q.** And the Cmax [1, 3]?
**A.** 71.0 ng/mL and 102 ng/mL and 269 ng/mL

**Q.** What about the MRT0-inf [1, 3] of the same compound?
**A.** 20.3 h and 7.47 h and 1.65 h

**Q.** What about the MRT0-last [1, 3] of the same compound?
**A.** 9.01 h and 4.78 h and 1.60 h

**Q.** And the T1/2 [1, 3]?
**A.** 14.3 h and 8.81 h and 1.03 h

**Q.** What about the Tlast [1, 3] of the same compound?
**A.** 24.0 h (2×) and 8.00 h

— US20240002365A1, “PYRIDAZINE AND 1,2,4-TRIAZINE DERIVATIVES AS FGFR KINASE INHIBITORS” (BETA PHARMA, INC., priority 2020, published 2024)
